Measurements reported in the supplement of paper PMC10627819.

How the values were obtained:
[1] = system: S. aureus DSM 20231; test: fitness (endpoint OD595 vs no drug) (fraction); higher = more growth
Method in brief: (§1)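 Fitness was measured as bacterial growth in 384-well plates inoculated at OD595 0.01 (30 µl, or 55 µl for S. pneumoniae). Media were TSB, LB Lennox or CY, at 37 °C. OD595 was read every 30 min for 14 h and background-subtracted against the first reading. Fitness is OD595 at the transition into stationary phase divided by the robust mean of no-drug control wells, capped at 1.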

[2] = system: S. pneumoniae D39V; test: as above
Method in brief: as §1
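Note: OD595 on entry to stationary phase over no-drug wells; at most 1.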

CC(=O)Oc1ccccc1C(=O)O [Acetylsalicylic acid] + CO/N=C(\C(=O)N[C@@H]1C(=O)N2C(C(=O)[O-])=C(C[N+]3(C)CCCC3)CS[C@H]12)c1csc(N)n1 [Cefepime]
fitness
Conditions	first compound 250 µg/mL	first compound 500 µg/mL	first compound 1000 µg/mL
[1], partner 0.125 µg/mL	0.856	0.712	0.624
[1], partner 0.25 µg/mL	0.83	0.683	–
[1], partner 0.5 µg/mL	0.78	0.666	0.612
[2], partner 0.007 µg/mL	0.988	≥ 1	0.927
[2], partner 0.0078 µg/mL	0.992	≥ 1	0.915
[2], partner 0.014 µg/mL	0.99	0.995	0.969
[2], partner 0.0155 µg/mL	≥ 1	≥ 1	0.898
[2], partner 0.028 µg/mL	0.927	0.896	0.865
[2], partner 0.031 µg/mL	0.964	≥ 1	0.888

CC(=O)Oc1ccccc1C(=O)O [Acetylsalicylic acid] + CN[C@@H]1[C@H](O)[C@H](NC)[C@H]2O[C@@]3(O)C(=O)C[C@@H](C)O[C@H]3O[C@@H]2[C@H]1O [Spectinomycin]
fitness
Conditions	partner 4 µg/mL	partner 8 µg/mL	partner 16 µg/mL
[1], first compound 250 µg/mL	0.871	0.866	–
[2], first compound 250 µg/mL	0.934	0.911	0.817
[2], first compound 500 µg/mL	0.862	0.801	0.691
[2], first compound 1000 µg/mL	0.64	0.601	0.536

fitness, [1], one replicate
Conditions	first compound 250 µg/mL	first compound 500 µg/mL	first compound 1000 µg/mL
partner 32 µg/mL	0.541	0.631	0.101
partner 64 µg/mL	0.253	0.32	0.042

CC(=O)Oc1ccccc1C(=O)O [Acetylsalicylic acid] + N[C@@H]1CONC1=O [Cycloserine D]
[1], first compound 250 µg/mL
Conditions	fitness
partner 0.375 µg/mL	0.96
partner 0.75 µg/mL	0.953
partner 1.5 µg/mL	0.93

CC(=O)Oc1ccccc1C(=O)O [Acetylsalicylic acid] + CCC[C@@H]1C[C@@H](C(=O)N[C@@H]([C@H]2O[C@H](SC)[C@H](O)[C@@H](O)[C@H]2O)[C@@H](C)O)N(C)C1 [Lincomycin]
fitness
Conditions	partner 0.1 µg/mL	partner 0.2 µg/mL	partner 0.215 µg/mL	partner 0.4 µg/mL	partner 0.43 µg/mL	partner 0.8 µg/mL	partner 0.86 µg/mL
[1], first compound 250 µg/mL	0.863	0.84	–	–	–	–	–
[1], first compound 500 µg/mL	0.81	0.795	–	–	–	–	–
[1], first compound 1000 µg/mL	–	–	–	0.204	–	–	–
[2], first compound 250 µg/mL	–	0.528	0.866	0.389	0.748	0.116	0.377
[2], first compound 500 µg/mL	–	0.455	0.824	0.368	0.749	0.0711	0.389
[2], first compound 1000 µg/mL	–	0.344	0.841	0.213	0.746	0.0378	0.35

CN(C)[C@@H]1C(O)=C(C(N)=O)C(=O)[C@@]2(O)C(O)=C3C(=O)c4c(O)ccc(Cl)c4[C@@](C)(O)[C@H]3C[C@@H]12 [Chlortetracycline] + CN[C@H](CC(C)C)C(=O)N[C@H]1C(=O)N[C@@H](CC(N)=O)C(=O)N[C@H]2C(=O)N[C@H]3C(=O)N[C@H](C(=O)N[C@H](C(=O)O)c4cc(O)cc(O)c4-c4cc3ccc4O)[C@H](O)c3ccc(c(Cl)c3)Oc3cc2cc(c3O[C@@H]2O[C@H](CO)[C@@H](O)[C@H](O)[C@H]2O[C@H]2C[C@](C)(N)[C@H](O)[C@H](C)O2)Oc2ccc(cc2Cl)[C@H]1O [Vancomycin]
[1], first compound 0.006 µg/mL, one replicate
Conditions	fitness
partner 0.1875 µg/mL	0.806
partner 0.375 µg/mL	0.776
partner 0.75 µg/mL	0.79

Conditions	fitness
[1], first compound 0.012 µg/mL, partner 0.1875 µg/mL	0.541
[1], first compound 0.012 µg/mL, partner 0.375 µg/mL	0.499
[1], first compound 0.012 µg/mL, partner 0.75 µg/mL	0.548
[1], first compound 0.024 µg/mL, partner 0.375 µg/mL	0.28
[1], first compound 0.048 µg/mL, partner 0.1875 µg/mL	0.103
[1], first compound 0.048 µg/mL, partner 0.375 µg/mL	0.0854
[1], first compound 0.048 µg/mL, partner 0.75 µg/mL	0.0806
[2], first compound 0.012 µg/mL, partner 0.03125 µg/mL	0.883
[2], first compound 0.012 µg/mL, partner 0.0625 µg/mL	0.903
[2], first compound 0.012 µg/mL, partner 0.125 µg/mL	0.706
[2], first compound 0.024 µg/mL, partner 0.03125 µg/mL	0.832
[2], first compound 0.024 µg/mL, partner 0.0625 µg/mL	0.829
[2], first compound 0.048 µg/mL, partner 0.03125 µg/mL	0.734
[2], first compound 0.048 µg/mL, partner 0.0625 µg/mL	0.688
[2], first compound 0.375 µg/mL, partner 0.125 µg/mL	0.0536
[2], first compound 0.375 µg/mL, partner 0.25 µg/mL	0.0553
[2], first compound 0.375 µg/mL, partner 0.5 µg/mL	0.0628
[2], first compound 0.75 µg/mL, partner 0.125 µg/mL	0.0485
[2], first compound 0.75 µg/mL, partner 0.25 µg/mL	0.0618
[2], first compound 0.75 µg/mL, partner 0.5 µg/mL	0.0842
[2], first compound 1.5 µg/mL, partner 0.125 µg/mL	0.0391
[2], first compound 1.5 µg/mL, partner 0.25 µg/mL	0.0305
[2], first compound 1.5 µg/mL, partner 0.5 µg/mL	0.0442

CC(=O)Oc1ccccc1C(=O)O [Acetylsalicylic acid] + CCCCCCCCCC(=O)N[C@@H]1[C@H]([C@@H]([C@H](O[C@H]1OC2=C3C=C4C=C2OC5=C(C=C(C=C5)[C@H]([C@H]6C(=O)N[C@@H](C7=C(C(=CC(=C7)O)OC8[C@H]([C@H]([C@@H]([C@H](O8)CO)O)O)O)C9=C(C=CC(=C9)[C@H](C(=O)N6)NC(=O)[C@@H]4NC(=O)[C@@H]1C2=CC(=CC(=C2)OC2=C(C=CC(=C2)[C@H](C(=O)N[C@H](CC2=CC(=C(O3)C=C2)Cl)C(=O)N1)N)O)O)O)C(=O)O)O[C@H]1[C@@H]([C@H]([C@@H]([C@H](O1)CO)O)O)NC(=O)C)Cl)CO)O)O [Teicoplanin]
fitness, [1], main component drawn
Conditions	partner 0.1562 µg/mL	partner 0.3125 µg/mL	partner 0.625 µg/mL
first compound 250 µg/mL	0.957	0.98	0.979
first compound 500 µg/mL	0.887	0.894	0.871

CC(=O)Oc1ccccc1C(=O)O [Acetylsalicylic acid] + CN(N=O)C(=O)N[C@@H](C=O)[C@@H](O)[C@H](O)[C@H](O)CO [Streptozotocin]
fitness
Conditions	first compound 250 µg/mL	first compound 500 µg/mL	first compound 1000 µg/mL
[1], partner 0.15 µg/mL	0.778	0.635	–
[1], partner 0.3 µg/mL	0.771	0.584	0.484
[1], partner 0.6 µg/mL	0.64	0.578	0.414
[2], partner 1.2 µg/mL	0.933	0.91	–
[2], partner 2.4 µg/mL	0.934	0.9	–
[2], partner 4.8 µg/mL	0.933	0.824	–

CC(=O)Oc1ccccc1C(=O)O [Acetylsalicylic acid] + O=C(O[C@@H]1Cc2c(O)cc(O)cc2O[C@@H]1c1cc(O)c(O)c(O)c1)c1cc(O)c(O)c(O)c1 [EGCG]
fitness
Conditions	partner 12.5 µg/mL	partner 25 µg/mL	partner 50 µg/mL
[1], first compound 250 µg/mL	0.764	0.774	0.766
[1], first compound 500 µg/mL	0.735	0.767	0.72
[1], first compound 1000 µg/mL	0.616	0.621	0.598
[2], first compound 250 µg/mL	0.955	0.935	0.914
[2], first compound 500 µg/mL	0.927	0.929	0.851
